Data taken from ChEMBL document CHEMBL4431353, “Optimization of a Series of Bivalent Triazolopyridazine Based Bromodomain and Extraterminal Inhibitors: The Discovery of (3R)-4-[2-[4-[1-(3-Methoxy-[1,2,4]triazolo[4,3-b]pyridazin-6-yl)-4-piperidyl]phenoxy]ethyl]-1,3-dimethyl-piperazin-2-one (AZD5153)” (J Med Chem, 2016).
Values after ≈ are worked out from the molar mass of the structure shown.

Legend:
[1] = target: T1, Bromodomain-containing protein 4 (Homo sapiens, UniProt O60885); experiment: Displacement of Alexa647-labeled JQ1 derivative from wild type BRD4 tandem domain (44 to 460 residues) (unknown origin) incubated for 1 hr by fluorescence polarization assay
[2] = target: T1, Bromodomain-containing protein 4; experiment: Inhibition of BRD4 in human LNCAP cells assessed as down regulation of nuclear AR level by immunofluorescence assay; format: cell-based
[3] = target: T1, Bromodomain-containing protein 4; experiment: Inhibition of BRD4 in human MCF7 cells assessed as down regulation of ERalpha after 18 to 24 hrs by Hoechst staining based cellomics arrayscan analysis; format: cell-based
[4] = target: T1, Bromodomain-containing protein 4; experiment: Inhibition of BRD4 in human MM1S cells assessed as down regulation of c-Myc incubated for 16 hrs by flow cytometry; format: cell-based
MM1.S = experiment: Growth inhibition of human MM1S cells after 72 hrs by alamar blue assay; format: functional
[5] = Lipophilicity, log D of compound at pH 7.4; format: physicochemical; conditions: buffer
[6] = Thermodynamic solubility of compound in pH 7.4 solution; format: physicochemical; conditions: buffer, read-out: Therm_solubility
[7] = Intrinsic clearance in human hepatocytes assessed per million cells; format: ADME, cell-based, Hepatocyte; conditions: read-out: CLH
[8] = Apparent permeability from apical to basolateral side in human Caco2 cells; format: ADME, cell-based; conditions: Caco-2
[9] = Unbound fraction in rat plasma; format: ADME, cell-free
[10] = Unbound fraction in dog plasma; format: ADME, cell-free, Canis lupus familiaris
[11] = Unbound fraction in human plasma; format: ADME, cell-free
[12] = Intrinsic clearance in dog hepatocytes assessed per million cells; format: ADME, cell-based, Canis lupus familiaris, Hepatocyte; conditions: read-out: CLH
[13] = Intrinsic clearance in rat hepatocytes assessed per million cells; format: ADME, cell-based, Hepatocyte; conditions: read-out: CLH
[14] = target: Transcription initiation factor TFIID subunit 1 (Homo sapiens, UniProt P21675); experiment: Inhibition of human TAF1 bromodomain 2 expressed in bacterial expression system
[15] = Plasma clearance in rat; format: ADME
[16] = Volume of distribution at steady state in rat; format: ADME; conditions: in vivo, read-out: Vdss
[17] = Oral bioavailability in rat; format: ADME, organism-based; conditions: in vivo
[18] = Plasma clearance in dog; format: ADME, Canis lupus familiaris
[19] = Volume of distribution at steady state in dog; format: ADME, Canis lupus familiaris; conditions: in vivo, read-out: Vdss
[20] = Oral bioavailability in dog; format: ADME, organism-based, Canis lupus familiaris; conditions: in vivo
Mus musculus = experiment: In vivo inhibition of BRD4 in SCID mouse xenografted with human MV4-11 cells assessed as free plasma concentration required to decrease c-Myc expression in tumor at 10 mg/kg, po administered as single dose measured after 8 hrs by qPCR method; format: functional
MV4-11 = experiment: Antitumor activity against human MV4-11 cells xenografted in SCID mouse assessed as tumor growth inhibition at 10 mg/kg, po administered daily through oral gavage for 14 days measured twice per week during compound dosing relative to control; format: functional; conditions: MV4-11, po, 336 h, read-out: TGI
[21] = Toxicity in SCID mouse xenografted with human MV4-11 cells assessed as body weight loss at 10 mg/kg, po administered daily through oral gavage for 14 days relative to control; format: organism-based; conditions: in vivo, 336 h
[22] = Metabolic stability in hepatic microsomes; format: ADME, Liver, Microsome
[23] = target: T2, Bromodomain-containing protein 2 (Homo sapiens, UniProt P25440); experiment: Inhibition of human BRD2 bromodomain 1 expressed in bacterial expression system
[24] = target: T3, Bromodomain-containing protein 3 (Homo sapiens, UniProt Q15059); experiment: Inhibition of human BRD3 bromodomain 1 expressed in bacterial expression system
[25] = target: T1, Bromodomain-containing protein 4; experiment: Inhibition of human BRD4 bromodomain 1 expressed in bacterial expression system
[26] = target: T4, Bromodomain testis-specific protein (Homo sapiens, UniProt Q58F21); experiment: Inhibition of human BRDT bromodomain 1 expressed in bacterial expression system
[27] = target: T1, Bromodomain-containing protein 4; experiment: Inhibition of human BRD4 bromodomain 2 expressed in bacterial expression system
[28] = target: T2, Bromodomain-containing protein 2; experiment: Inhibition of human BRD2 bromodomain 2 expressed in bacterial expression system
[29] = target: T4, Bromodomain testis-specific protein; experiment: Inhibition of human BRDT bromodomain 2 expressed in bacterial expression system
[30] = target: T3, Bromodomain-containing protein 3; experiment: Inhibition of human BRD3 bromodomain 2 expressed in bacterial expression system
[31] = target: T5, Bromodomain-containing protein 9 (Homo sapiens, UniProt Q9H8M2); experiment: Inhibition of human BRD9 expressed in bacterial expression system
T5 sequence (Q9H8M2 whole entry): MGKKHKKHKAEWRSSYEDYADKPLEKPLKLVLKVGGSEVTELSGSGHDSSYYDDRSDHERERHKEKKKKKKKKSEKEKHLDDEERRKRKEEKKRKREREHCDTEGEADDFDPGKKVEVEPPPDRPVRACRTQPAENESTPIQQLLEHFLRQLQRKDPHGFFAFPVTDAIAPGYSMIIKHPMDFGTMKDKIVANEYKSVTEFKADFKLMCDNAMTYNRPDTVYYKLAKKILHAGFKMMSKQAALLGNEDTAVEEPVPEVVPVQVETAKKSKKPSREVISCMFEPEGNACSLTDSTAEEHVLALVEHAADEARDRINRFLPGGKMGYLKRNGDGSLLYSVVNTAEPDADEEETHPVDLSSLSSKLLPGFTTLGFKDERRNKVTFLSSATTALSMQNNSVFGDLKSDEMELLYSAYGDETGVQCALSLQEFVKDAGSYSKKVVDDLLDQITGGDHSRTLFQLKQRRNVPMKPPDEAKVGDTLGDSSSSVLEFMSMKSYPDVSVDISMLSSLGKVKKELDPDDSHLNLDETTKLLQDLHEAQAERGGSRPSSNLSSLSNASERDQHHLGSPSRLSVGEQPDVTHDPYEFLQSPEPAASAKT

CREB-binding protein = CREB-binding protein (Homo sapiens, UniProt Q92793); experiment: Inhibition of human CREBBP expressed in bacterial expression system
[32] = target: Histone acetyltransferase p300 (Homo sapiens, UniProt Q09472); experiment: Inhibition of human EP300 expressed in bacterial expression system
[33] = target: Transcription initiation factor TFIID subunit 1-like (Homo sapiens, UniProt Q8IZX4); experiment: Inhibition of human TAF1L bromodomain 2 expressed in bacterial expression system
[34] = target: Bromodomain-containing protein 4 (Homo sapiens, UniProt O60885, N140A)
[35] = target: Bromodomain-containing protein 4 (Homo sapiens, UniProt O60885, N433A)

T2 sequence (P25440 whole entry): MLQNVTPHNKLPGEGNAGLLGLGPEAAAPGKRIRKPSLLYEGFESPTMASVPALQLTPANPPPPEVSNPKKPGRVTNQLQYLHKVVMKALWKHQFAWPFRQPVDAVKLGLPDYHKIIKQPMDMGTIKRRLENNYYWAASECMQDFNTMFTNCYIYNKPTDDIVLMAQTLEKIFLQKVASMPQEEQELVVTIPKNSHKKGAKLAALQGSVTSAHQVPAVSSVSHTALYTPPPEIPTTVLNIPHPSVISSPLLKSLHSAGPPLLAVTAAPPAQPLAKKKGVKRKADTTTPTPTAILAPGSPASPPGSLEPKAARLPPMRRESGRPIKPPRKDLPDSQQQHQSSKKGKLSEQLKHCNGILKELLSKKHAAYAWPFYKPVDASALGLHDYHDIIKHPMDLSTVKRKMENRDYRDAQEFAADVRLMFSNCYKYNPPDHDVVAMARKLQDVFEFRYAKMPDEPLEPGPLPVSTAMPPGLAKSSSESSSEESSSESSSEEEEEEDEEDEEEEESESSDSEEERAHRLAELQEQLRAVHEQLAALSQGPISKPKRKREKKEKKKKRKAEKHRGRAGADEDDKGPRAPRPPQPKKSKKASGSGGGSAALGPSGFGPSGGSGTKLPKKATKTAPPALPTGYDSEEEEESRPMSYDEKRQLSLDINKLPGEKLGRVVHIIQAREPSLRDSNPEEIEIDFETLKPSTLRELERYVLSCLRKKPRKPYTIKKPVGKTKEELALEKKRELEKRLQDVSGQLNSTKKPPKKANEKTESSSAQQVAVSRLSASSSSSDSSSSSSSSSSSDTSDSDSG
T3 sequence (Q15059 whole entry): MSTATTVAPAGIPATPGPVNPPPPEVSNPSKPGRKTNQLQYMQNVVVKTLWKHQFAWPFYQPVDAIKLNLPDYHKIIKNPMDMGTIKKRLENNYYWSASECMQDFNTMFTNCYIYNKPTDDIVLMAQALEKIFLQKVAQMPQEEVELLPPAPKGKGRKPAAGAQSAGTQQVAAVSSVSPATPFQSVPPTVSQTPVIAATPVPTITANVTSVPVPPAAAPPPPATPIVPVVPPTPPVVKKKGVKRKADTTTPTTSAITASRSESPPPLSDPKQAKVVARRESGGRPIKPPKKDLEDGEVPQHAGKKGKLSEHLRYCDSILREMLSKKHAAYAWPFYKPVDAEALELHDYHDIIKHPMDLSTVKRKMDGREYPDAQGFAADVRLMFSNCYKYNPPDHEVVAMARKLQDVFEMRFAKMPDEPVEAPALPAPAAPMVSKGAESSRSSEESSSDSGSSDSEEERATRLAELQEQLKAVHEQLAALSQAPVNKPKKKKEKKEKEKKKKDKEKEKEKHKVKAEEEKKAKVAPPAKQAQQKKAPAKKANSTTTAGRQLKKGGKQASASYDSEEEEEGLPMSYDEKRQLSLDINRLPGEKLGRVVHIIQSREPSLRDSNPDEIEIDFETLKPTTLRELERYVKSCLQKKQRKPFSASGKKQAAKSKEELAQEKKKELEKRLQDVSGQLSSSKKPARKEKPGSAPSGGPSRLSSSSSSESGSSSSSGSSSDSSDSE
Transcription initiation factor TFIID subunit 1, sequence (P21675 whole entry): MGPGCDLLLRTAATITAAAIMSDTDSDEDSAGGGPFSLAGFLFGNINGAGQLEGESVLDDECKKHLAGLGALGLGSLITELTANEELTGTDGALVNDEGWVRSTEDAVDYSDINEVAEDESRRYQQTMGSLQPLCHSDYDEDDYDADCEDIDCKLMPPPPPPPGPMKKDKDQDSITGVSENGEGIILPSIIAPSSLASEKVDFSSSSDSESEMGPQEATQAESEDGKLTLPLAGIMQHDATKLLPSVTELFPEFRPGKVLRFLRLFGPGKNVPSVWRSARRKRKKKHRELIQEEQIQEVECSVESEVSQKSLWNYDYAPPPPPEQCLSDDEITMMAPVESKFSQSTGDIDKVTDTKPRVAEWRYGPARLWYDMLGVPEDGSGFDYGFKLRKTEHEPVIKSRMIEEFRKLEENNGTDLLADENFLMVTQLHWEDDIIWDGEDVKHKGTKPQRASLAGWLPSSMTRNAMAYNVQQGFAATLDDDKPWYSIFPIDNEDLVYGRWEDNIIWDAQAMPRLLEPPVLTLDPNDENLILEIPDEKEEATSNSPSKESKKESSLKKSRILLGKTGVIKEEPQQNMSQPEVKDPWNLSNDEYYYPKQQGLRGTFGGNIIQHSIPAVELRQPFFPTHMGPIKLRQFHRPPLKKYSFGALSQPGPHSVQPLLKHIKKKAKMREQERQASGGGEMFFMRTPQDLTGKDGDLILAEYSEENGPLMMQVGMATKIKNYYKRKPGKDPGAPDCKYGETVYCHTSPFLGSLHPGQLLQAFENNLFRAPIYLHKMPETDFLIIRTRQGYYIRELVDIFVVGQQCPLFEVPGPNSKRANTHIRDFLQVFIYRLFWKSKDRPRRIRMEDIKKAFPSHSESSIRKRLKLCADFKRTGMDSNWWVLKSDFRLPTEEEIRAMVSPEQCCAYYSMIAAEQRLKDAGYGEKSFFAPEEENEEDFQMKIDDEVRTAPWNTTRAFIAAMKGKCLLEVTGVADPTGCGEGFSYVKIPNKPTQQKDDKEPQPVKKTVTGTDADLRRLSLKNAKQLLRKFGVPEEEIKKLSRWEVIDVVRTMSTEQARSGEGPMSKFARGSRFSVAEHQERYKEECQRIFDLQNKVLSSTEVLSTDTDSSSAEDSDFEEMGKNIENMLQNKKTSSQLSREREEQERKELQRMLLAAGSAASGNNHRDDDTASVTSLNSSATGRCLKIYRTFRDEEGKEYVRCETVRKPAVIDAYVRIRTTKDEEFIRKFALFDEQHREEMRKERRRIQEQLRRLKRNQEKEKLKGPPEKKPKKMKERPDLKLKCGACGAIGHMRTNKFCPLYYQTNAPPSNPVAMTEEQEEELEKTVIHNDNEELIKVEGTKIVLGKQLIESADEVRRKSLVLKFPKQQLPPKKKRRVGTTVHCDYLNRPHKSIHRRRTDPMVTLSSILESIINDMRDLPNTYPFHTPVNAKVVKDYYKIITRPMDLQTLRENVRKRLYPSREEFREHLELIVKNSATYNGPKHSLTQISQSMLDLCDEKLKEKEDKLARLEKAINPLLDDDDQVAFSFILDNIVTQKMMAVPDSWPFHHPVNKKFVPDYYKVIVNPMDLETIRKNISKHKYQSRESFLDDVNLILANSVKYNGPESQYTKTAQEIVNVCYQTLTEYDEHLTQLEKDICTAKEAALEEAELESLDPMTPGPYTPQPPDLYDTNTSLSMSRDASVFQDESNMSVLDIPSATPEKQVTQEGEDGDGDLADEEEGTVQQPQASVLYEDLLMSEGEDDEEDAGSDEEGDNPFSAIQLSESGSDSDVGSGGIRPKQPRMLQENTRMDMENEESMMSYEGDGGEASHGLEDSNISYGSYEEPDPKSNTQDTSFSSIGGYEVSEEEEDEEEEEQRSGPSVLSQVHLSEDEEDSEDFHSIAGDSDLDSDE

Ki [1]: 5.01 nM | IC50 [2]: 20 nM | IC50 [3]: 25.1 nM | IC50 [4]: 12.6 nM | GI50 (MM1.S): 5.01 nM | logD [5]: 2.3 | solubility thermodynamic [6]: 1600 to 1650 µM (≈ 767 to 791 µg/mL) | hepatocyte CLint [7]: 3.5 to 4 µL/min/1e6 cells | Papp A→B [8]: 40 ×10⁻⁶ cm/s | fraction unbound [9]: 0.04 | fraction unbound [10]: 0.24 | fraction unbound [11]: 0.23 | hepatocyte CLint [12]: < 1 µL/min/1e6 cells | hepatocyte CLint [13]: 5 µL/min/1e6 cells | Ki [14]: 1260 nM | clearance [15]: 4 mL/min/kg | Vd [16]: 0.9 L/kg | bioavailability [17]: 81% | clearance [18]: 6 mL/min/kg | Vd [19]: 0.4 L/kg | bioavailability [20]: 55% | Stability [22]: Stable | Ki [23]: 100 nM | Ki [24]: 63.1 nM | Ki [25]: 50.1 nM | Ki [26]: 100 nM | Ki [27]: 126 nM | Ki [28]: 251 nM | Ki [29]: 501 nM | Ki [30]: 398 nM | Ki [31]: 2510 nM | Ki (CREB-binding protein): 6310 nM | Ki [32]: < 10000 nM | Ki [33]: 2510 nM | Ki [34]: 158 nM | Ki [35]: 126 nM
SMILES: COc1nnc2ccc(N3CCC(c4ccc(OCCN5CCN(C)C(=O)[C@H]5C)cc4)CC3)nn12 [AZD-5153]
Cp(f) (Mus musculus): <0.2 µM | inhibition in vivo at 10 mg/kg (MV4-11): > 100% | Activity [21]: 8%
